# Reference: patent US20210113501A1, “METHOD OF ADMINISTERING BETA-HYDROXY-BETA-METHYLBUTYRATE (HMB)” (Metabolic Technologies, Inc., priority 2009, published 2021)
# Assays:
# Study 2 hematology = assay type: in vivo, human
# Method: (§1) Study 2 design. Study 2 was conducted similar to study 1 with the following modifications. In study 2, plasma levels of HMB were measured for 1440 min (24 h) and total urine collection was also performed for measurement of urinary HMB excretion during this period. After the 180 min blood sample, the subjects were allowed to leave the laboratory and were instructed to return to the laboratory for additional blood samples at 360, 720, and 1440 min after the ingestion of the supplement. As in study 1, each subject took each of the treatments with at least a one week washout period between treatments. Samples were again stored frozen at −70° C. for analysis of plasma and urinary HMB concentrations. Pre-ingestion, 180 min and 1440 min blood samples were again assayed for the same measurements already for study 1. Subjects were provided with a standardized lunch after the 180 min blood sampling and instructed to eat this at approximately 240 min post ingestion. Following the 720 min blood sample, subjects were instructed to eat a normal evening meal before 10 pm. Subjects reported back to the laboratory the following morning for the fasted 1440 min blood sample. A urine collection container was provided and subjects collected all urine produced during the experimental 24 h experimental period. The urine was stored refrigerated when not being collected. Urine volumes were measured and samples of the total urine collection were taken and stored frozen at −70° C. until analyzed for HMB.
# The data were analyzed using a crossover design with Proc GLM in SAS. (45) For the timed sampling of plasma HMB a repeated measures polynomial model was used. The model included subject, order, and treatment main effects and time by treatment interaction where appropriate. For other parameters Proc GLM was also used with subject, order, and treatment main effects and the p values are reported for the treatment main effect. Statistical significance was determined for p<0.05 and a trend was determined for 0.05<p<0.10.
# [1] = Study 2: plasma HMB and urinary HMB excretion over 24 h; assay type: in vivo, human; conditions: Study 2
# Text: Human subjects. In study 1, four male and four female college-aged subjects were studied. In study 2, an additional four male and four female college-aged subjects were studied. The protocols for both studies were approved by the Iowa State University IRB and each subject gave informed consent to participate in the study. Due to the nature of the treatments, neither the subjects nor the researchers could be blinded.
# Treatments. The same treatments were given to the subjects in both study groups. The three treatments were given in random order to each subject with at least a one week washout period between treatments. The treatments were supplied by Metabolic Technologies, Inc. (MTI, Ames, Iowa) and were prepared with food grade ingredients. One gram of CaHMB or the equivalent HMB in free acid in a gel form was administered to the subjects. The CaHMB capsules were obtained from a commercial supplement manufacturer (Optimum Nutrition, Aurora, Ill.) while the HMB-acid gel was prepared at MTI laboratories. Briefly, the HMB-acid was adjusted to a pH 4.5 with potassium carbonate (K2CO3) and flavors and sweeteners were then added. The 1.0 g CaHMB capsule was taken with 355 mL of water (approx. 12 oz.). The free acid gel dosage was 0.80 g and was equivalent to the free acid contained in the CaHMB in the capsule. The free acid gel treatments were either swallowed (FASW) or held sublingual for 15 seconds and then swallowed (FASL). FASW consisted of expelling the entire dose into the mouth in a 3 ml syringe, swallowing, and then following this with 355 mL of water. FASL subjects were instructed to place the entire dosage under the tongue and hold the dosage for 15 sec before swallowing. They then rinsed and followed the dose with 355 mL of water.
# as §1
# HMB analysis. Plasma and urine HMB were analyzed by gas chromatography/mass spectrometry (GC/MS) as previously described.(27)
# Calculations and statistics. Areas under the curves were calculated for each subject using the trapezoidal method that sums the area above baseline.(51) Half-life of plasma HMB was calculated for study 2. The following equations were used:
# k=(ln(Cpeak)−ln(Ctrough))/Tinterval
# Peak plasma concentrations for each subject were used for Cpeak. […] Tpeak was the time at which Cpeak was measured and Tinterval is the time from Tpeak until the time at Ctrough (720 min). The extracellular fluid compartment was assumed to be 20% of body weight and calculated using equation 3 below(1). […]
compound,measurement,setting,value
"CC(C)(O)CC(=O)O [HMB-Acid Gel Sublingual, 3-hydroxy-3-methylbutyric acid]",Basophils (absolute),Study 2 hematology; After (24 h),0.04 ± 0.0 ×10^3/μL
same,"Basophils, %",Study 2 hematology; After (24 h),0.4 ± 0.2%
same,Eosinophils (absolute),Study 2 hematology; After (24 h),0.2 ± 0.03 ×10^3/μL
same,"Eosinophils, %",Study 2 hematology; After (24 h),3.3 ± 0.5%
same,Hematocrit,Study 2 hematology; After (24 h),38.6 ± 1.3%
same,Hemoglobin,Study 2 hematology; After (24 h),13.2 ± 0.5 g/dL
same,Lymphocytes (absolute),Study 2 hematology; After (24 h),3.1 ± 0.3 ×10^3/μL
same,"Lymphocytes, %",Study 2 hematology; After (24 h),45.6 ± 3.4%
same,MCH,Study 2 hematology; After (24 h),30.5 ± 0.5 pg
same,MCHC,Study 2 hematology; After (24 h),34.5 ± 0.2 g/dL
same,MCV,Study 2 hematology; After (24 h),89.3 ± 1.4 fL
same,Monocytes (absolute),Study 2 hematology; After (24 h),0.6 ± 0.05 ×10^3/μL
same,"Monocytes, %",Study 2 hematology; After (24 h),8.4 ± 0.9%
same,Neutrophils (absolute),Study 2 hematology; After (24 h),2.9 ± 0.3 ×10^3/μL
same,"Neutrophils, %",Study 2 hematology; After (24 h),42.4 ± 3.5%
same,Platelets,Study 2 hematology; After (24 h),244.3 ± 17.5 ×10^3/μL
same,RBC,Study 2 hematology; After (24 h),4.3 ± 0.1 ×10^6/µL
same,RDW,Study 2 hematology; After (24 h),13.4 ± 0.2%
same,WBC,Study 2 hematology; After (24 h),6.8 ± 0.3 ×10^3/μL
same,Basophils (absolute),Study 2 hematology; Before,0.06 ± 0.02 ×10^3/μL
same,"Basophils, %",Study 2 hematology; Before,0.6 ± 0.2%
same,Eosinophils (absolute),Study 2 hematology; Before,0.2 ± 0.04 ×10^3/μL
same,"Eosinophils, %",Study 2 hematology; Before,2.5 ± 0.5%
same,Hematocrit,Study 2 hematology; Before,37.5 ± 1.4%
same,Hemoglobin,Study 2 hematology; Before,13.2 ± 0.5 g/dL
same,Lymphocytes (absolute),Study 2 hematology; Before,3.0 ± 0.3 ×10^3/μL
same,"Lymphocytes, %",Study 2 hematology; Before,43.1 ± 4.2%
same,MCH,Study 2 hematology; Before,30.4 ± 0.5 pg
same,MCHC,Study 2 hematology; Before,34.5 ± 0.2 g/dL
same,MCV,Study 2 hematology; Before,88.4 ± 1.5 fL
same,Monocytes (absolute),Study 2 hematology; Before,0.6 ± 0.05 ×10^3/μL
same,"Monocytes, %",Study 2 hematology; Before,8.3 ± 1.0%
same,Neutrophils (absolute),Study 2 hematology; Before,3.3 ± 0.5 ×10^3/μL
same,"Neutrophils, %",Study 2 hematology; Before,45.3 ± 5.2%
same,Platelets,Study 2 hematology; Before,233.8 ± 14.2 ×10^3/μL
same,RBC,Study 2 hematology; Before,4.3 ± 0.1 ×10^6/µL
same,RDW,Study 2 hematology; Before,13.3 ± 0.2%
same,WBC,Study 2 hematology; Before,7.1 ± 0.4 ×10^3/μL
same,Basophils (absolute) % Change,Study 2 hematology; Before to After,−40.0%
same,"Basophils, % - % Change",Study 2 hematology; Before to After,−40.0%
same,Eosinophils (absolute) % Change,Study 2 hematology; Before to After,35.7%
same,"Eosinophils, % - % Change",Study 2 hematology; Before to After,30.0%
same,Hematocrit % Change,Study 2 hematology; Before to After,2.9%
same,Hemoglobin % Change,Study 2 hematology; Before to After,0.4%
same,Lymphocytes (absolute) % Change,Study 2 hematology; Before to After,5.0%
same,"Lymphocytes, % - % Change",Study 2 hematology; Before to After,5.8%
same,MCH % Change,Study 2 hematology; Before to After,0.3%
same,MCHC % Change,Study 2 hematology; Before to After,0.1%
same,MCV % Change,Study 2 hematology; Before to After,1.0%
same,Monocytes (absolute) % Change,Study 2 hematology; Before to After,0.0%
same,"Monocytes, % - % Change",Study 2 hematology; Before to After,1.5%
same,Neutrophils (absolute) % Change,Study 2 hematology; Before to After,−12.1%
same,"Neutrophils, % - % Change",Study 2 hematology; Before to After,−6.4%
same,Platelets % Change,Study 2 hematology; Before to After,4.5%
same,RBC % Change,Study 2 hematology; Before to After,0.1%
same,RDW % Change,Study 2 hematology; Before to After,0.7%
same,WBC % Change,Study 2 hematology; Before to After,−3.5%
same,24 h Urine HMB,[1],1.16 ± 0.17 mmol
same,"24 h Urine HMB, % initial dose",[1],17.2 ± 2.5 % initial dose
same,Cpeak (peak plasma HMB concentration),[1],247.6 ± 19.8 nmol/mL
same,AUC plasma HMB,[1]; 24 h,"52,886 ± 2,729 nmol/1440 min"
same,Clearance,[1]; Vd assumed 20% of body weight,66.9 ± 1.6 mL/min
same,"24 h Urine HMB, % initial dose",[1]; listed as FASL,17.2±2.5 % initial dose
same,Cpeak (peak plasma HMB concentration),[1]; listed as FASL,247.6 ± 19.8 nmol/mL
same,Half-life of plasma HMB,[1]; listed as FASL,2.51 ± 0.14 h
same,time to peak plasma HMB concentration,[1]; listed as FASL,38.8 ± 2.6 min
same,AUC greater than for CaHMB capsules,"[1]; over 24 hours, listed as FASL",14.3%
same,tpeak,[1]; unit as in Table 5,38.8 ± 2.6 min
